Assay results as given in patent US9969775B2, “CGRP antagonist peptides” (Ferring B.V., priority 2015, dated 2018).
Numbered stars: 1 amine (or outer) side, 2 acyl side, 3 side chain; on linkers, the order of the positions; unused ones are H or OH. Bridge positions count the residues as written; N and C are the ends. Square brackets hold non-standard residues; d marks the D form. Side chains are listed from the residue outwards. Peptide text beside a SMILES is read from it. * marks the point of attachment. Phe(3-CH2NH2) = O=C([C@H](Cc1cccc(CN[*:3])c1)N[*:1])[*:2]; Phe(3-CONH2) = NC(=O)c1cccc(C[C@H](N)C(=O)O)c1; X16 = CCN(CC)CC[C@H](N[*:1])C(=O)[*:2]; Picolinoyl(5-F) = O=C(c1ccc(F)cn1)*; Dab(iPr) = CC(C)NCC[C@H](N)C(=O)O; Benzoyl(4-F) = O=C(c1ccc(F)cc1)*; Oxazole2carbonyl = O=C(c1ncco1)*; 3Pal = N[C@@H](Cc1cccnc1)C(=O)O; Picolinoyl = O=C(c1ccccn1)*; ΔPro = O=C(O)[C@@H]1C=CCN1; Orn = NCCC[C@H](N)C(=O)O; Dap = NC[C@H](N)C(=O)O; AEEA = NCCOCCOCC(=O)O

Columns and labels:
[1] = target: T1, hCGRP receptor (CALCRL:RAMP1) (Homo sapiens, UniProt O60894+Q16602); experiment: CGRP receptor antagonist activity measured by cAMP assay (HTRF); type: cell-based; conditions: agonist human α-CGRP; for Emax: % MPE: percent of the maximal possible effect, read-out: hCGRP-R Efficacy Antag (%) Ave; for IC50: GeneBLAzer CALCRL:RAMP1-CRE-bla Freestyle 293F cells, 30 minutes, read-out: hCGRP-R IC50 Ave
T1 construct: host or cells: GeneBLAzer CALCRL:RAMP1-CRE-bla Freestyle 293F
Description: Example 6: CGRP Receptor Antagonist Activity Measured by cAMP Assay
CGRP receptor agonists increase intracellular cyclic adenosine mono-phosphate (cAMP). CGRP receptor antagonists can reduce the agonist effect. Antagonist activity was assessed by measurement of cyclic adenosine mono-phosphate (cAMP) using cell line stably expressing the hCGRP receptor (GeneBLAzer® CALCRL:RAMP1-CRE-bla Freestyle™ 293F, Invitrogen). hCGRP receptor expressing cells were maintained in DMEM high-glucose with GlutaMAX™ containing 10% (v/v) FBS, 0.1 mM NEAA, 25 mM HEPES, 5 ug/ml Blasticidin, 100 ug/ml Hygromycin, and 400 ug/ml Geneticin at 37° C. under 5% CO2 in a humidified atmosphere. For cAMP measurement, cells were washed once with 5 ml 1×PBS, cell maintenance media was replaced with compound buffer ((CB): DMEM containing 0.1% BSA and 0.5 mM IBMX), and flasks were incubated for 1 hour at 37° C. under 5% CO2 in a humidified atmosphere. Cells were removed from culture flasks using non-enzymatic cell dissociation buffer and harvested in CB. The reaction was performed in 384 well white small volume plates (Greiner) at a density of 10,000 cells/well. Cells were exposed to varying concentrations of antagonist compounds for 30 minutes in the presence of a fixed concentration of agonist (human α-CGRP). cAMP levels were measured using an HTRF (homogeneous time resolved fluorescence)-based competitive cAMP immunoassay (cAMP Dynamic 2 Kit, Cisbio), according to the manufacturer's instructions. […] Reported parameters include antagonist potency IC50 (the concentration causing half-maximal inhibition of the agonist response for antagonist compounds) and efficacy (% MPE: percent of the maximal possible effect).

[2] = target: T2, hAM2 receptor (CALCRL:RAMP3) (Homo sapiens, UniProt O60896+Q16602); experiment: AM2 receptor antagonist activity measured by cAMP assay (HTRF); type: cell-based; conditions: for Emax: % MPE: percent of the maximal possible effect, read-out: hAM2-R Efficacy Antag (%) Ave; for Emax / IC50: agonist human adrenomedullin; for IC50: GeneBLAzer CALCRL:RAMP3-CRE-bla Freestyle 293F cells, read-out: hAM2-R IC50 Ave; for selectivity ratio CGRP/AM2: selectivity ratio for hCGRP over hAM2, calculated from the IC50 values
T2 construct: expressed in transfected cells; host or cells: GeneBLAzer CALCRL:RAMP3-CRE-bla Freestyle 293F
T2 sequence (Q16602 23-461): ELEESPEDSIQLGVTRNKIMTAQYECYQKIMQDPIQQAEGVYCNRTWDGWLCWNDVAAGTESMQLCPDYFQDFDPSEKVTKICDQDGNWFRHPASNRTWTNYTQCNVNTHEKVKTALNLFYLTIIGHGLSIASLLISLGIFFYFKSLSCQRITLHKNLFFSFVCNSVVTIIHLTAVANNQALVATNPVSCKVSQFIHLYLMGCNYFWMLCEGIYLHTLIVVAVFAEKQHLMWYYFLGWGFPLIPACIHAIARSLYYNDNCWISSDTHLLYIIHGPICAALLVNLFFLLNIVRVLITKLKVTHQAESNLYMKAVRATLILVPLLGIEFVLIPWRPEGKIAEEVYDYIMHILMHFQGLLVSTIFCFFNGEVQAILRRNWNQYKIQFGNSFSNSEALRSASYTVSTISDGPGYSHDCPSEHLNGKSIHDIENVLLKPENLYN
T2 sequence (O60896 24-148): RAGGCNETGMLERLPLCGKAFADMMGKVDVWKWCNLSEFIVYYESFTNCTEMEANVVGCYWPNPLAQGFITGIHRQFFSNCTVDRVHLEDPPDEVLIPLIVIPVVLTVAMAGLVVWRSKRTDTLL
Description: Antagonist activity for the adrenomedullin receptor AM2 was determined using the method described in Example 6 above, with the following modifications. Instead of GeneBLAzer® CALCRL:RAMP1-CRE-bla Freestyle™ 293F cells, GeneBLAzer® CALCRL:RAMP3-CRE-bla Freestyle™ 293F cells were used to test activity at hAM2 receptors. The agonist was human adrenomedullin, instead of α-CGRP.
In Table 5, the selectivity ratio for hCGRP over hAM2 is calculated as hCGRP-R IC50/hAM2-R IC50.

T1 sequence (Q16602 23-461): as the sequence (Q16602 23-461) above
T1 sequence (O60894 27-148): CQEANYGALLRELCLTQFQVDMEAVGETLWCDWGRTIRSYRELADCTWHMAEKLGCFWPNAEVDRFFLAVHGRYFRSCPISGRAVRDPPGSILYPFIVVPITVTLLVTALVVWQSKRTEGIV

Emax [1] | IC50 [1] | Emax [2] | IC50 [2] | selectivity ratio CGRP/AM2 [2] | SMILES
100% | 0.13 nM | 100% | 43 nM | 334 | CC(C)[C@@H]1NC(=O)[C@H](CC(=O)O)NC(=O)[C@H](CN)NC(=O)[C@@H](NC(=O)[C@H](Cc2ccc(O)cc2)NC(=O)[C@H](NC(=O)c2ccc(F)cc2)C(C)C)CSSC[C@@H](C(=O)N[C@@H](Cc2cccnc2)C(N)=O)NC(=O)[C@H](Cc2ccc(O)cc2)NC(=O)[C@@H]2CCCN2C(=O)CNC1=O [Compound 7, Bz(4-F)-D-Val-Tyr-c(Cys-Dpr-Asp-Val-Gly-Pro-Tyr-Cys)-3Pal-NH2] ({Benzoyl(4-F)}-[dV]YC[Dap]DVGPYC[3Pal]-NH2; disulfide 3-10)
100% | 0.09 nM | 100% | 30 nM | 347 | CCN(CC)CC[C@@H]1NC(=O)[C@@H](NC(=O)[C@H](Cc2ccc(O)cc2)NC(=O)[C@H](NC(=O)c2ccccn2)C(C)C)CSSC[C@@H](C(=O)N[C@@H](Cc2cccnc2)C(N)=O)NC(=O)[C@H](Cc2ccccc2)NC(=O)[C@@H]2CCCN2C(=O)CNC(=O)[C@H](C(C)C)NC(=O)[C@H](CC(=O)O)NC1=O [Compound 8, Picolinoyl-D-Val-Tyr-c(Cys-Dab(Et2)-Asp-Val-Gly-Pro-Phe-Cys)-3Pal-NH2] (Picolinoyl-[dV]YC[X16]DVGPFC[3Pal]-NH2; disulfide 3-10)
100% | 0.15 nM | 106% | 51 nM | 351 | CC(C)NCC[C@@H]1NC(=O)[C@@H](NC(=O)[C@H](Cc2ccc(O)cc2)NC(=O)[C@H](NC(=O)c2ccccn2)C(C)C)CSSC[C@@H](C(=O)N[C@@H](Cc2cccnc2)C(N)=O)NC(=O)[C@H](Cc2ccccc2)NC(=O)[C@@H]2CCCN2C(=O)CNC(=O)[C@H](C(C)C)NC(=O)[C@H](CC(=O)O)NC1=O [Compound 9, Picolinoyl-D-Val-Tyr-c(Cys-Dab(iPr)-Asp-Val-Gly-Pro-Phe-Cys)-3Pal-NH2] (Picolinoyl-[dV]YC[Dab(iPr)]DVGPFC[3Pal]-NH2; disulfide 3-10)
100% |  | 107% |  |  | CC(C)[C@@H]1NC(=O)[C@H](CC(=O)O)NC(=O)[C@H](CNC(=O)COCCOCCNC(=O)COCCOCCN)NC(=O)[C@@H](NC(=O)[C@H](Cc2ccc(O)cc2)NC(=O)[C@H](NC(=O)c2ccccn2)C(C)C)CSSC[C@@H](C(=O)N[C@@H](Cc2cccnc2)C(N)=O)NC(=O)[C@H](Cc2ccccc2)NC(=O)[C@@H]2CCCN2C(=O)CNC1=O [Compound 10] (Picolinoyl-[dV]YC[Dap]([AEEA-AEEA])DVGPFC[3Pal]-NH2; disulfide 3-10)
100% | 0.13 nM | 108% | 25 nM | 198 | CC(C)[C@@H]1NC(=O)[C@H](CC(=O)O)NC(=O)[C@H](CCCNC(=N)N)NC(=O)[C@@H](NC(=O)[C@H](Cc2ccc(O)cc2)NC(=O)[C@H](NC(=O)c2ncco2)C(C)C)CSSC[C@@H](C(=O)N[C@@H](Cc2cccnc2)C(N)=O)NC(=O)[C@H](Cc2cccnc2)NC(=O)[C@@H]2CCCN2C(=O)CNC1=O [Compound 11, Oxazole-2-carbonyl-D-Val-Tyr-c(Cys-Arg-Asp-Val-Gly-Pro-3Pal-Cys)-3Pal-NH2] (Oxazole2carbonyl-[dV]YCRDVGP[3Pal]C[3Pal]-NH2; disulfide 3-10)
100% | 0.11 nM | 100% | 18 nM | 172 | CC(C)[C@@H]1NC(=O)[C@H](CC(=O)O)NC(=O)[C@H](CCCN)NC(=O)[C@@H](NC(=O)[C@H](Cc2ccc(O)cc2)NC(=O)[C@H](NC(=O)c2ccc(F)cn2)C(C)C)CSSC[C@@H](C(=O)N[C@@H](Cc2cccnc2)C(N)=O)NC(=O)[C@H](Cc2ccccc2)NC(=O)[C@@H]2CCCN2C(=O)CNC1=O [Compound 12, Picolinoyl(5-F)-D-Val-Tyr-c(Cys-Orn-Asp-Val-Gly-Pro-Phe-Cys)-3Pal-NH2] ({Picolinoyl(5-F)}-[dV]YC[Orn]DVGPFC[3Pal]-NH2; disulfide 3-10)

More lines, now with the values behind:

SMILES | Emax [1] | IC50 [1] | Emax [2] | IC50 [2] | selectivity ratio CGRP/AM2 [2]
CC(C)[C@@H]1NC(=O)[C@H](CC(=O)O)NC(=O)[C@H](CCCNC(=N)N)NC(=O)[C@@H](NC(=O)[C@H](Cc2ccc(O)cc2)NC(=O)[C@H](NC(=O)c2ccc(F)cc2)C(C)C)CSSC[C@@H](C(=O)N[C@@H](Cc2cccnc2)C(N)=O)NC(=O)[C@H](Cc2ccccc2)NC(=O)[C@@H]2CCCN2C(=O)CNC1=O [Compound 1] ({Benzoyl(4-F)}-[dV]YCRDVGPFC[3Pal]-NH2; disulfide 3-10) | 100% | 0.14 nM | 101% | 52 nM | 362
CC(C)[C@@H]1NC(=O)[C@H](CC(=O)O)NC(=O)[C@H](CCCNC(=N)N)NC(=O)[C@@H](NC(=O)[C@H](Cc2ccc(O)cc2)NC(=O)[C@H](NC(=O)c2ccc(F)cc2)C(C)C)CSSC[C@@H](C(=O)N[C@@H](Cc2cccnc2)C(N)=O)NC(=O)[C@H](Cc2cccnc2)NC(=O)[C@@H]2CCCN2C(=O)CNC1=O [Compound 2, Bz(4-F)-D-Val-Tyr-c(Cys-Arg-Asp-Val-Gly-Pro-3Pal-Cys)-3Pal-NH2] ({Benzoyl(4-F)}-[dV]YCRDVGP[3Pal]C[3Pal]-NH2; disulfide 3-10) | 100% | 0.08 nM | 100% | 45 nM | 555
CC(C)[C@@H]1NC(=O)[C@H](CC(=O)O)NC(=O)[C@H](CCCNC(=N)N)NC(=O)[C@@H](NC(=O)[C@H](Cc2ccc(O)cc2)NC(=O)[C@H](NC(=O)c2ccccn2)C(C)C)CSSC[C@@H](C(=O)N[C@@H](Cc2cccnc2)C(N)=O)NC(=O)[C@H](Cc2cccnc2)NC(=O)[C@@H]2CCCN2C(=O)CNC1=O [Compound 3, Picolinoyl-D-Val-Tyr-c(Cys-Arg-Asp-Val-Gly-Pro-3Pal-Cys)-3Pal-NH2] (Picolinoyl-[dV]YCRDVGP[3Pal]C[3Pal]-NH2; disulfide 3-10) | 100% | 0.12 nM | 101% | 35 nM | 285
CC(C)[C@@H]1NC(=O)[C@H](CC(=O)O)NC(=O)[C@H](CCCNC(=N)N)NC(=O)[C@@H](NC(=O)[C@H](Cc2ccc(O)cc2)NC(=O)[C@H](NC(=O)c2ccc(F)cc2)C(C)C)CSSC[C@@H](C(=O)N[C@@H](Cc2cccnc2)C(N)=O)NC(=O)[C@H](Cc2ccccc2)NC(=O)[C@@H]2C=CCN2C(=O)CNC1=O [Compound 4, Bz(4-F)-D-Val-Tyr-c(Cys-Arg-Asp-Val-Gly-Dhp-Phe-Cys)-3Pal-NH2] ({Benzoyl(4-F)}-[dV]YCRDVG[ΔPro]FC[3Pal]-NH2; disulfide 3-10) | 100% | 0.17 nM | 113% | 29 nM | 172
CC(C)[C@@H]1NC(=O)[C@H](CC(=O)O)NC(=O)[C@H](CCCNC(=N)N)NC(=O)[C@@H](NC(=O)[C@H](Cc2ccc(O)cc2)NC(=O)[C@H](NC(=O)c2ccc(F)cc2)C(C)C)CSSC[C@@H](C(=O)N[C@@H](Cc2cccnc2)C(N)=O)NC(=O)[C@H](Cc2cccc(CN)c2)NC(=O)[C@@H]2CCCN2C(=O)CNC1=O [Compound 5, Bz(4-F)-D-Val-Tyr-c(Cys-Arg-Asp-Val-Gly-Pro-Phe(3-CH2NH2)-Cys)-3Pal-NH2] ({Benzoyl(4-F)}-[dV]YCRDVGP[Phe(3-CH2NH2)]C[3Pal]-NH2; disulfide 3-10) | 100% | 0.13 nM | 99% | 26 nM | 192
CC(C)[C@@H]1NC(=O)[C@H](CC(=O)O)NC(=O)[C@H](CN)NC(=O)[C@@H](NC(=O)[C@H](Cc2ccc(O)cc2)NC(=O)[C@H](NC(=O)c2ccc(F)cc2)C(C)C)CSSC[C@@H](C(=O)N[C@@H](Cc2cccnc2)C(N)=O)NC(=O)[C@H](Cc2cccc(C(N)=O)c2)NC(=O)[C@@H]2CCCN2C(=O)CNC1=O [Compound 6, Bz(4-F)-D-Val-Tyr-c(Cys-Dpr-Asp-Val-Gly-Pro-Phe(3-Cbm)-Cys)-3Pal-NH2] ({Benzoyl(4-F)}-[dV]YC[Dap]DVGP[Phe(3-CONH2)]C[3Pal]-NH2; disulfide 3-10) | 100% | 0.17 nM | 113% | 101 nM | 612
